# BindingDB's records for doi:10.1021/jm0003440 (Merck Frosst Centre For Therapeutic Research, 2001)
# Test: Inhibitory activity tested against Human Cathepsin K receptor using bone resorption assay
compound,measurement,value
N#CN1CCC(NC(=O)OCc2ccccc2)C1 (stereo unspecified) [(1-Cyano-pyrrolidin-3-yl)-carbamic acid benzyl ester],IC50,1.41 µM
